Data taken from patent US20230117034A1, “PYRAZOLOTRIAZINES” (Bayer Aktiengesellschaft, priority 2019, published 2023).

Key:
[1] = biological target: CDK12/CycK (Homo sapiens, UniProt Q9NYV4); test: CDK12/CycK high ATP kinase assay (TR-FRET, 2 mM ATP); format: biochemical; details: 2 mM ATP (high ATP); median; read-out: CDK12/CyclinK, 2 mM ATP (high ATP), IC50-[mol/l] (median)
Procedure, shortened: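 His-tagged human CDK12/CycK (~0.75 nM) pre-incubated 15 min with compound, then 60 min at 22 °C with 2 mM ATP and 1 µM biotinylated peptide (HEPES pH 7.5, 20 mM MgCl2). EDTA stop; phospho-Ser62 antibody/Eu anti-rabbit and streptavidin-XL665 TR-FRET, 665/620 nm ratio normalised to give IC50.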

[2] = biological target: T1, CDK2/CycE (Homo sapiens, UniProt P24941); test: CDK2/CycE kinase assay (TR-FRET, 2 mM ATP); format: biochemical; details: 2 mM ATP (high ATP); median; read-out: CDK2/CyclinE, 2 mM ATP (high ATP), IC50 (median)
T1 construct: purchased ProQinase GmbH (Freiburg, Germany); host or cells: insect cells (Sf9)
Procedure, shortened: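 GST-tagged human CDK2 and CycE from Sf9 cells, about 10 ng/ml, pre-incubated 15 min at 22 °C with compound in Tris/HCl pH 8.0 buffer. Reaction with 2 mM ATP and 0.75 µM biotinylated peptide for 25 min at 22 °C. Phospho-RB antibody TR-FRET (665/620 nm ratio) read after 1 h; data normalised to no-inhibitor and no-enzyme controls.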

Sequence of CDK12/CycK (Q9NYV4 with tags, fused parts or gaps): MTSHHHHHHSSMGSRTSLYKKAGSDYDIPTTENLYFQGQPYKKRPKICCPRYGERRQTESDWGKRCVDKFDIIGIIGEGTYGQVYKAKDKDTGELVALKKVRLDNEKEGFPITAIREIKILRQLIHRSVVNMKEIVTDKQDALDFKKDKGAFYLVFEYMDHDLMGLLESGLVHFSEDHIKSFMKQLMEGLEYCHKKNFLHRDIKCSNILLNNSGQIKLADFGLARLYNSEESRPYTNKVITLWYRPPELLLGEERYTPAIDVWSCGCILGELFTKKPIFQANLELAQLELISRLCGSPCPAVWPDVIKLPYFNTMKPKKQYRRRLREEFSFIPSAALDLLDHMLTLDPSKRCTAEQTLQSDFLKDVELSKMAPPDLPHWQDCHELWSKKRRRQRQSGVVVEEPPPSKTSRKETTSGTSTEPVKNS
Sequence of CDK12/CycK (O75909 1-300 partner limits assumed): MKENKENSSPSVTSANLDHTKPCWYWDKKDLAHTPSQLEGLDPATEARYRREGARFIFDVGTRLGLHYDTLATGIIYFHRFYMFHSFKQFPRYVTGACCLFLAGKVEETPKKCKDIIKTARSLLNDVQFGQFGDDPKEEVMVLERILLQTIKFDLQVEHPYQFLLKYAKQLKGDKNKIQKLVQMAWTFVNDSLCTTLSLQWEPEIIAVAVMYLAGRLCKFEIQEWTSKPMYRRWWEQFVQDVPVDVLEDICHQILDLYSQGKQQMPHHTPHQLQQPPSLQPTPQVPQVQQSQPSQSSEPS

IC50 [1]	IC50 [2]	SMILES
0.789 µM	8.95 µM	Fc1cc2nc(CNc3nc(N4CCOCC4)nc4c(Br)cnn34)[nH]c2cc1Cl [Example 336, 8-bromo-N-[(6-chloro-5-fluoro-1H-benzimidazol-2-yl)methyl]-2-(morpholin-4-yl)pyrazolo[1,5-a][1,3,5]triazin-4-amine]
8.72 µM	17.8 µM	CN1CCN(c2nc(NCc3nc4cc(F)c(Cl)cc4[nH]3)n3ncc(Br)c3n2)CC1 [Example 337, 8-bromo-N-[(6-chloro-5-fluoro-1H-benzimidazol-2-yl)methyl]-2-(4-methylpiperazin-1-yl)pyrazolo[1,5-a][1,3,5]triazin-4-amine]
1.18 µM	6.57 µM	CN(CC(C)(C)O)c1nc(NCc2nc3cc(F)c(Cl)cc3[nH]2)n2ncc(Br)c2n1 [Example 338, 1-[(8-bromo-4-{[(6-chloro-5-fluoro-1H-benzimidazol-2-yl)methyl]amino}pyrazolo[1,5-a][1,3,5]triazin-2-yl)(methyl)amino]-2-methylpropan-2-ol]
1.55 µM	6.74 µM	FC(F)(F)c1ccc2[nH]c(CNc3nc(N4CCOCC4)nc4c(Br)cnn34)nc2c1 [Example 339, 8-bromo-2-(morpholin-4-yl)-N-{[5-(trifluoromethyl)-1H-benzimidazol-2-yl]methyl}pyrazolo[1,5-a][1,3,5]triazin-4-amine]
0.618 µM	1.16 µM	Cc1cc2nc(CNc3nc(N4CCOCC4)nc4c(Br)cnn34)[nH]c2cc1C [Example 340, 8-bromo-N-[(5,6-dimethyl-1H-benzimidazol-2-yl)methyl]-2-(morpholin-4-yl)pyrazolo[1,5-a][1,3,5]triazin-4-amine]
2.22 µM	9.36 µM	Fc1cc2nc(CNc3nc(N4CCOCC4)nc4c(Br)cnn34)[nH]c2cc1F [Example 341, 8-bromo-N-[(5,6-difluoro-1H-benzimidazol-2-yl)methyl]-2-(morpholin-4-yl)pyrazolo[1,5-a][1,3,5]triazin-4-amine]
6.65 µM	2.94 µM	Cc1cc2nc(CNc3nc(N4CCN(C)CC4)nc4c(Br)cnn34)[nH]c2cc1C [Example 342, 8-bromo-N-[(5,6-dimethyl-1H-benzimidazol-2-yl)methyl]-2-(4-methylpiperazin-1-yl)pyrazolo[1,5-a][1,3,5]triazin-4-amine]
0.188 µM	1.19 µM	Cc1cc2nc(CNc3nc(N(C)CC(C)(C)O)nc4c(Br)cnn34)[nH]c2cc1C [Example 343, 1-[(8-bromo-4-{[(5,6-dimethyl-1H-benzimidazol-2-yl)methyl]amino}pyrazolo[1,5-a][1,3,5]triazin-2-yl)(methyl)amino]-2-methylpropan-2-ol]
8.37 µM	12.4 µM	CN1CCN(c2nc(NCc3nc4cc(C(F)(F)F)ccc4[nH]3)n3ncc(Br)c3n2)CC1 [Example 344, 8-bromo-2-(4-methylpiperazin-1-yl)-N-{[5-(trifluoromethyl)-1H-benzimidazol-2-yl]methyl}pyrazolo[1,5-a][1,3,5]triazin-4-amine]
0.661 µM	6.07 µM	CN(CC(C)(C)O)c1nc(NCc2nc3cc(C(F)(F)F)ccc3[nH]2)n2ncc(Br)c2n1 [Example 345, 1-{[8-bromo-4-({[5-(trifluoromethyl)-1H-benzimidazol-2-yl]methyl}amino)pyrazolo[1,5-a][1,3,5]triazin-2-yl](methyl)amino}-2-methylpropan-2-ol]
12.2 µM	> 20 µM	CN1CCN(c2nc(NCc3nc4cc(F)c(F)cc4[nH]3)n3ncc(Br)c3n2)CC1 [Example 346, 8-bromo-N-[(5,6-difluoro-1H-benzimidazol-2-yl)methyl]-2-(4-methylpiperazin-1-yl)pyrazolo[1,5-a][1,3,5]triazin-4-amine]
2.18 µM	9.08 µM	CN(CC(C)(C)O)c1nc(NCc2nc3cc(F)c(F)cc3[nH]2)n2ncc(Br)c2n1 [Example 347]
7.8 µM	3.39 µM	Brc1cnn2c(NCc3nc4ccccc4[nH]3)nc(N3CCN4CCC3C4)nc12 (centres unmarked) [Example 350, N-[(1H-benzimidazol-2-yl)methyl]-8-bromo-2-(1,4-diazabicyclo[3.2.1]octan-4-yl)pyrazolo[1,5-a][1,3,5]triazin-4-amine]
9.35 µM	7.39 µM	Brc1cnn2c(NCc3nc4ccccc4[nH]3)nc(N3CC4CCC(C3)O4)nc12 [Example 351, N-[(1H-benzimidazol-2-yl)methyl]-8-bromo-2-(8-oxa-3-azabicyclo[3.2.1]octan-3-yl)pyrazolo[1,5-a][1,3,5]triazin-4-amine]
5.25 µM	2.3 µM	Brc1cnn2c(NCc3nc4ccccc4[nH]3)nc(N3CC4CCC3CO4)nc12 (centres unmarked) [Example 352, N-[(1H-benzimidazol-2-yl)methyl]-8-bromo-2-(2-oxa-5-azabicyclo[2.2.2]octan-5-yl)pyrazolo[1,5-a][1,3,5]triazin-4-amine]
1.15 µM	11.9 µM	Fc1ccc2[nH]c(CNc3nc(N4CCOCC4)nc4c(Cl)cnn34)nc2c1F [Example 357]
11.6 µM	> 20 µM	CN1CCN(c2nc(NCc3nc4c(F)c(F)ccc4[nH]3)n3ncc(Cl)c3n2)CC1 [Example 358, 8-chloro-N-[(4,5-difluoro-1H-benzimidazol-2-yl)methyl]-2-(4-methylpiperazin-1-yl)pyrazolo[1,5-a][1,3,5]triazin-4-amine]
2.09 µM	12.4 µM	CN(CC(C)(C)O)c1nc(NCc2nc3c(F)c(F)ccc3[nH]2)n2ncc(Cl)c2n1 [Example 359, 1-[(8-chloro-4-{[(4,5-difluoro-1H-benzimidazol-2-yl)methyl]amino}pyrazolo[1,5-a][1,3,5]triazin-2-yl)(methyl)amino]-2-methylpropan-2-ol]
1.43 µM	4.34 µM	Fc1cccc2[nH]c(CNc3nc(N4CCOCC4)nc4c(Cl)cnn34)nc12 [Example 361, 8-chloro-N-[(4-fluoro-1H-benzimidazol-2-yl)methyl]-2-(morpholin-4-yl)pyrazolo[1,5-a][1,3,5]triazin-4-amine]
13.1 µM	9.31 µM	CN1CCN(c2nc(NCc3nc4c(F)cccc4[nH]3)n3ncc(Cl)c3n2)CC1.O=CO [Example 362, formic acid 8-chloro-N-[(4-fluoro-1H-benzimidazol-2-yl)methyl]-2-(4-methylpiperazin-1-yl)pyrazolo[1,5-a][1,3,5]triazin-4-amine]

SMILES	IC50 [1]	IC50 [2]
Clc1cc2nc(CNc3nc(N4CC5CCC(C4)N5)nc4c(Br)cnn34)[nH]c2cc1Cl [Example 334, 8-bromo-2-(3,8-diazabicyclo[3.2.1]octan-3-yl)-N-[(5,6-dichloro-1H-benzimidazol-2-yl)methyl]pyrazolo[1,5-a][1,3,5]triazin-4-amine]	2.03 µM	10.5 µM
Fc1cc2nc(CNc3nc(N4CC5CCC(C4)N5)nc4c(Br)cnn34)[nH]c2cc1Cl [Example 348, 8-bromo-N-[(6-chloro-5-fluoro-1H-benzimidazol-2-yl)methyl]-2-(3,8-diazabicyclo[3.2.1]octan-3-yl)pyrazolo[1,5-a][1,3,5]triazin-4-amine]	2.89 µM	13.2 µM
Brc1cnn2c(NCc3nc4ccccc4[nH]3)nc(N3CCN4CCC3CC4)nc12 [Example 349, N-[(1H-benzimidazol-2-yl)methyl]-8-bromo-2-(1,4-diazabicyclo[3.2.2]nonan-4-yl)pyrazolo[1,5-a][1,3,5]triazin-4-amine]	8.67 µM	1.82 µM
Cc1cc2nc(CNc3nc(N4CC5CCC(C4)N5)nc4c(Br)cnn34)[nH]c2cc1C [Example 353, 8-bromo-2-(3,8-diazabicyclo[3.2.1]octan-3-yl)-N-[(5,6-dimethyl-1H-benzimidazol-2-yl)methyl]pyrazolo[1,5-a][1,3,5]triazin-4-amine]	2.52 µM	2.86 µM
Fc1cc2nc(CNc3nc(N4CC5CCC(C4)N5)nc4c(Br)cnn34)[nH]c2cc1F [Example 355, 8-bromo-2-(3,8-diazabicyclo[3.2.1]octan-3-yl)-N-[(5,6-difluoro-1H-benzimidazol-2-yl)methyl]pyrazolo[1,5-a][1,3,5]triazin-4-amine]	4.18 µM	> 18.6 µM
CN1C2CCC1CN(c1nc(NCc3nc4c(F)c(F)ccc4[nH]3)n3ncc(C(F)(F)F)c3n1)C2 [Example 356, N-[(4,5-difluoro-1H-benzimidazol-2-yl)methyl]-2-(8-methyl-3,8-diazabicyclo[3.2.1]octan-3-yl)-8-(trifluoromethyl)pyrazolo[1,5-a][1,3,5]triazin-4-amine]	4.91 µM	> 20 µM
Fc1ccc2[nH]c(CNc3nc(N4CC5CCC(C4)N5)nc4c(Cl)cnn34)nc2c1F.O=CO [Example 360, formic acid 8-chloro-2-(3,8-diazabicyclo[3.2.1]octan-3-yl)-N-[(4,5-difluoro-1H-benzimidazol-2-yl)methyl]pyrazolo[1,5-a][1,3,5]triazin-4-amine]	4.01 µM	12.1 µM
Fc1cccc2[nH]c(CNc3nc(N4CC5CCC(C4)N5)nc4c(Cl)cnn34)nc12 [Example 363, 8-chloro-2-(3,8-diazabicyclo[3.2.1]octan-3-yl)-N-[(4-fluoro-1H-benzimidazol-2-yl)methyl]pyrazolo[1,5-a][1,3,5]triazin-4-amine]	3.31 µM	8.61 µM
